Laboratory results from US20080207594A1, “Use of Gsk-3 Inhibitors for Preventing and Treating Pancreatic Autoimmune Disorders” (Davelogen Aktiengesellschaft, priority 2005, published 2008).

Assays:
[1] = tested on: Pax4; assay: Pax4 transcription in INS-1E insulinoma cells, quantitative RT-PCR; type: cell-based, rat; details: INS-1E cells
Text: The response of the Pax4 gene to test compounds was investigated in the rat insulinoma cell line INS-1E. INS-1E cells are known to express Pax4 and to upregulate Pax4 levels in response to the treatment with activin-A and betacellulin. In the search for novel beta cell mitogens and/or beta cell protective agents the inventors treated INS-1E cells with different test compounds.
(§1) Total RNA from 8×10^4 cells growing on 4 cm^2 surface area of a tissue culture dish was extracted using Qiagen RNAeasy kit according to the instructions of the manufacturer (Qiagen) and 2 μg was converted into cDNA. Primers for pax4, 18S RNA, and rat RNA polymerase II largest subunit (RPB1) were designed using the Primer Express 1.5 Software from Applied Biosystems and sequences can be obtained upon request. Quantitative real-time PCR was performed using Applied Biosystems SDS 7000 detection system. Amplifications from 2 independent experiments were performed in duplicate for each transcript and mean values were normalized to the mean value of the reference RNA 18S RNA.
(§2) Cells were seeded at a density of 2×10^4 cells per cm^2 6 to 8 days before the treatment with chemicals. During the growth period the medium was changed once. The cells were incubated for different periods of time with chemicals under serum-free conditions. The cells were harvested in Qiagen RNAeasy cell lysate buffer and immediately transferred to dry ice. The samples were stored at −20° C. until RNA isolation was carried out.
as §2, with “RNA easy” for “RNAeasy”, “−20 degree” for “−20° C.”

[2] = tested on: minimal CMV promotor; assay: Counter screen assay (Capan-1-pCMVmin-LUC-54 cells); type: cell-based, human; details: compound 10 μM with Trichostatin A 0.75 μM, 30 hour
Method: (§3) Generation of stable Cell Lines and Drug Selections Capan-1 human pancreatic duct cell line ([HBT-79], purchased from American Type Culture Collection (ATCC), referred to as Capan-1 herein) were grown in high glucose DMEM [Gibco Cat. No. 61965-026] containing 10% FBS [Gibco Cat. No. 10270-106] at 37° C. under an atmosphere of 5% CO2. The Pax-4-reporter gene construct (referred to as pKS-Pax-4-LUC)— a cDNA construct containing a luciferase reporter (LUC) gene under the control of the Pax4 promoter with the complete Pax4 gene locus were cloned into the plasmid pBlueskript ks (FIG. 5). The Minimal CMV reporter gene construct (referred to as pCMVmin-LUC): a fire fly luciferase reporter gene (LUC) under the control of a minimal CMV promotor (56 bp) was cloned into pcDNA3.1 plasmid (without promotor) (FIG. 6).
Stable transfected Capan-1-pCMVmin-LUC-54 cells, cultivated without G418 for 4 day's, were plated at a density of 4×10^4 cells per 96 well plate [Greiner, LIA plate white, Cat. No. 655083] in 100 μl DMEM containing 10% (v/v) FBS and grown for 24 hour. Cells were starved by serum starvation for 16 hour in 8511 medium without FBS [DMEM(Cat. No. 25030-024) containing 5% L-glutamine]. […] The luminescence was measured within 15 minutes after reagent addition for maximum sensitivity.

[3] = tested on: Pax4; assay: Pax4 expression in small intestine and colon
[4] = tested on: Pax4 promoter; assay: Cellular HTS-Pax4 screening assay (Capan-1 pKS-Pax-4-LUC luciferase reporter); type: cell-based, human; details: Capan-1 pKS-Pax-4-LUC clone18; compound 10 μM with Trichostatin A 0.75 μM; 30 hour
Text: To perform high throughput screening for compounds that are either directly or indirectly capable of switching on Pax4 expression, a Pax4 reporter gene assay was established. Therefore, cDNA constructs containing a luciferase reporter gene under the control of the Pax4 promoter with the complete Pax4 gene locus were introduced into the human pancreatic duct cell line CAPAN-1.
as §3, with “The Minimal CMV reporter gene construct (referred to as pCMVmin-LUC): a fire fly luciferase reporter gene (LUC) under the control of a minimal CMV promotor (56 bp) was cloned into pcDNA3.1 plasmid (without promotor) (FIG. 6).” left out
Capan-1, stably transfected with pKS-Pax-4-LUC (clone18), cultivated without G418 for 4 day's, were plated at a density of 1×10^4 cells per 96 well plate [Greiner, LIA plate white, Cat. No. 655083] in 100 μl DMEM containing 10% (v/v) FBS without G418 and grown for 24 hour. […] The luminescence was measured within 15 minutes after reagent addition for maximum sensitivity.

[5] = tested on: Pax4; assay: Pax4 expression in human islets; type: cell-based; details: 5 μM, 48 h
Method: FIG. 2 illustrates relative Pax4 expression in untreated human islets and human islets, treated with 5 μM Kenpaullone (KP) for 48 h.
Further, human islets were treated with 5 μM Kenpaullone for 48 h. The treated islets show a 10-15 fold expression of Pax4 compared to untreated pancreatic islets.

[6] = tested on: human Pax4 promoter; assay: Pax4 reporter gene assay in INS-1-cl.-3.5 cells; type: cell-based, rat; details: INS-1-cl.-3.5 or INS-1-cl.-9 cells; FIG. 18, FIG. 19
Method: (§4) INS-1E cell lines were grown as described below. The Pax-4-reporter gene construct (referred to as pKS-Pax-4-LUC), a cDNA construct containing a firefly luciferase reporter (LUC) gene under the transcriptional control of human Pax4 promoter sequences and the nearly complete human Pax4 gene locus (cf. FIG. 5A) was cloned into the plasmid pBluescript ks.
(§5) Adherent INS-1E cells were transfected using Lipofectamine 2000 (Invitrogen) according to the protocol provided by the supplier. The transfected cells were treated with media containing 400 μg/ml G418 Sulfate (e.g. Geneticin from Gibco; Cat. No. 11811-098), a selection agent for eukaryotic cells, 24 to 48 hours after the transfection. To establish independent stable cell lines, cell colonies which occurred 2 to 6 weeks after the transfection were individually transferred to new culture dishes and then propagated like untransfected INS-1E cells, but in the presence of G418 Sulfate.
(§6) For the identification and/or characterization of beta-cell mitogens a Pax4 reporter gene assay has been established. […]
(§7) Luciferase activity that can be quantified using appropriate imaging systems reflects the activation status of the human Pax4 promoter. […]

[7] = tested on: RNA polymerase II largest subunit (RPB1); assay: Expression of unrelated gene RPB1 in INS-1E cells, quantitative RT-PCR; type: cell-based, rat
Text: The response of the Pax4 gene to mitogens was investigated in the rat insulinoma cell line INS-1E. INS-1E cells are known to express Pax4 and to upregulate Pax4 levels in response to the treatment with activin-A and betacellulin (Ueda (2000), supra, Li et al. (2004) supra, Brun et al. (2004), supra). In the search for novel beta-cell mitogens the inventors treated INS-1E cells with proteins related to activin A or betacellulin. […] The Pax4 RNA expression level was normalized to this of 18S RNA. The level of the unrelated gene RNA polymerase II largest subunit (RPB1) was unaffected by activin B treatment.
as §1
INS-1E cells were cultured as described (Merglen, (2004) Endocrinology; 145: 667-678). […]

[8] = tested on: human Pax4 promoter; assay: Pax4 reporter gene assay in INS-1-cl-1.5 cells; type: cell-based, rat
Method: as §4, §5, §6, §7

## O=C1Cc2c([nH]c3ccc(Br)cc23)-c2ccccc2N1 [Kenpaullone, 9-Bromo-7,12-dihydro-indolo[3,2-d][1]benzazepin-6(5H)-one]
[1]; 20 μM
  induction of relative Pax4 expression compared to the control: 8 fold
[1]; 20 μM, FIG. 1
  Pax4 gene transcription over time (in words): transiently induces Pax4 gene transcription
[2]
  induction in the counterscreen: 1.2 fold
[3]
  effect on Pax4 expression in small intestine and colon: No effect
[4]
  induction of luciferase activity: 6 fold
[5]
  expression of Pax4 compared to untreated pancreatic islets: 10-15 fold

## TGF-beta 1: Activin related protein
[6]
  Pax4 reporter response of clone (in words): does not effect Pax4 transcription

B1: activin B: protein related to activin A (protein, UniProt P09529 293-407, looked up)
Inhibin beta B chain: GLECDGRTNLCCRQQFFIDFRLIGWNDWIIAPTGYYGNYCEGSCPAYLAGVPGSASSFHTAVVNQYRMRGLNPGTVNSCCIPTKLSTMSMLYFDDEYNIVKRDVPNMIVEECGCA
modifications: Inhibin beta B chain
[1]; 1 nM
  increase in Pax4 levels (maximal Pax4 induction): ~7.5 fold
[1]; FIG. 16
  stimulation of Pax4 transcription relative to activin A (in words): almost equally potent in stimulating Pax4 transcription as activin A
[7]
  level of RNA polymerase II largest subunit (RPB1): unaffected

B2: Activin: Activin; figures 18 and 19 name activin-A (protein, UniProt P08476 311-426, looked up)
Inhibin beta A chain: GLECDGKVNICCKKQFFVSFKDIGWNDWIIAPSGYHANYCEGECPSHIAGTSGSSLSFHSTVINHYRMRGHSPFANLKSCCVPTKLRPMSMLYYDDGQNIIKKDIQNMIVEECGCS
modifications: Inhibin beta A chain
[8]
  Pax4 reporter response of clone (in words): does not react to Activin stimulation
[6]
  Pax4 reporter response of clone (in words): react to Activin treatment
